Measurements from patent US20050101542A1, “Combination therapy for controlling appetites” (Regents of the University of California, priority 2002, published 2005).

Key:
[1] = Acute food intake in 24-h food-deprived rats, i.p. dosing; assay type: in vivo, rat
Experimental: Feeding experiments. Acute experiments. Food intake was measured in 24-h food-deprived rats (Navarro, et al., J. Neurochem., 67:1982-1991 (1996)), administering drugs 15 min before food presentation. Subchronic experiments. Ad libitum fed rats received vehicle injections for three days. On day four, the animals were divided in two equal groups and gave them daily injections of vehicle or OEA (5 mg per kg at 1900 h) for 7 consecutive days, while measuring body weight, food intake and water intake.
The effects of systemically administered OEA or an OEA-like compound or OEA-like modulator on food intake in rats can be assessed using a 24 h fast. […] To define the selectivity of this response, various OEA analogs were evaluated for their ability to produce hypophagia.

Adipocyte = experiment: Lypolysis (glycerol release) in adipocytes; assay type: cell-based, rat; details: 30 min incubation
From the text: This example illustrates the effect of OEA on fat metabolism and methods for studying the same. Oleoylethanolamide (OEA) decreases body weight not only by suppressing appetite, but also by possibly enhancing body fat catabolism. The effects of OEA on fatty acid oxidation in major body-fat burning tissues (soleus muscle, liver, cultured cardiac myocytes and astrocytes) was examined. […] In addition, OEA induces a significant mobilization of triacylglycerol stores from primary white adipose tissue cells. Table 4 details the methods and effects of OEA on fatty acid oxidation in these cells. Structure-activity relationship experiments provide evidence that the effect of OEA on skeletal muscle fatty acid oxidation is specific (FIG. 8).

c-fos mRNA = c-fos mRNA in situ hybridization in rat brain; assay type: in vivo; details: 10 mg per kg i.p., 60 min; PVN, supraoptic nucleus, NST
Experimental: In situ hybridization. Rats were accustomed to the handling and injection procedure for five days. On day six, vehicle or drug OEA (10 mg per kg, i.p.), or oleic acid (10 mg per kg) was administered, and the rats killed 60 min later by decapitation under anesthesia. In situ hybridization analyses were conducted using ^35S-labeled cRNA probes for c-fos (Guthrie et al., Proc. Natl. Acad. Sci. U.S.A., 90:3329-3333 (1993)) and choline acetyl transferase (ChAT) (Lauterborn et al., Brain Res. Mol. Brain Res., 17:59-69 (1993)). Average hybridization densities were determined from at least three tissue sections per rat. Statistical significance was evaluated using one-way analysis of variance (ANOVA) followed by the Tukey-Kramer post-hoc test for paired comparisons.
The compounds of the invention may use peripheral sensory inputs to suppress appetite. Peripheral sensory inputs related to appetite suppression recruit several CNS structures, which include the nucleus of the solitary tract (NST) in the brainstem and the arcuate and paraventricular (PVN) Nuclei in the hypothalamus (Schwartz et al., Nature, 404:661-671 (2000)). To identify the brain pathways engaged during OEA-induced hypophagia, mRNA levels for the activity regulated gene c-fos (Curran et al., Oncogene, 2:79-84 (1987)) were mapped by in situ hybridization after systemic administration of OEA, oleic acid or vehicle. […]

human PPARδ = target: T1, human PPARδ (Homo sapiens, UniProt Q03181); experiment: GAL4 chimeric receptor transactivation assay in HeLa cells, PPARδ; assay type: cell-based; details: read-out: EC50 for PPARβ activation
T1 construct: expressed in transfected cells; host or cells: HeLa (clonal reporter line HLR, stably transfected with pFA-PPARδ)
T1 sequence (Q03181 211-439 limits assumed): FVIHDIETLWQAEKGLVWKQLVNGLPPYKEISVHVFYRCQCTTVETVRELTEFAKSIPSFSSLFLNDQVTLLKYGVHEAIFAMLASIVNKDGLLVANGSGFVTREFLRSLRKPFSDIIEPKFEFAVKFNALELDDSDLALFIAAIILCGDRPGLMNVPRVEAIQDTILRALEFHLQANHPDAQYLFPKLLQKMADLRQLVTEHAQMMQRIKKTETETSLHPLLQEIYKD
Experimental: (§1) Eighteen hours following transfection, the culture media was replaced with supplemented DMEM containing hygromycin (100 μg-ml^−1, Calbiochem). After 4 weeks in culture, the surviving clones were isolated and analyzed by luciferase assay. […] The cells were cultured in supplemented DMEM containing hygromycin and G418. For transactivation assays, cells were seeded in 6-well plates (50,000 cells per well) and incubated for 7 hours in supplemented DMEM containing hygromycin and G418, plus appropriate concentrations of test compounds. Dual-luciferase reporter assay system (Promega) and an MLX Microtiter® plate luminometer (Dynex) were used to determine luciferase activity in cell lysates.

human PPARα = target: T2, human PPARα (Homo sapiens, UniProt Q07869); experiment: GAL4 chimeric receptor transactivation assay in HeLa cells, PPARα; assay type: cell-based; details: HeLa transactivation assay, 7 hours; read-out: EC50 for PPARα activation
T2 construct: expressed in transfected cells; host or cells: HeLa (clonal reporter line HLR, stably transfected with pFA-PPARα)
T2 sequence (Q07869 239-466 limits assumed): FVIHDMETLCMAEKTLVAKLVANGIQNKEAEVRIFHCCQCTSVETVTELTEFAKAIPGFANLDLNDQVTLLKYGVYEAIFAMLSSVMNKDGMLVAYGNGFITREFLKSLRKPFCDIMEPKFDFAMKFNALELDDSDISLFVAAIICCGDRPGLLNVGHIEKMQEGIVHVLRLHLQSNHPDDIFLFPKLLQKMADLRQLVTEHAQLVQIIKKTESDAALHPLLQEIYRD
Experimental: as §1

[2] = Food intake in capsaicin-treated (sensory deafferented) rats, Example 2; assay type: in vivo, rat; details: OEA 10 mg per kg i.p.
Experimental: FAE were dissolved in dimethylsulphoxide (DMSO) and administered in 70% DMSO in sterile saline (acute treatments) Or 5% Tween 80/5% propylenglycol in sterile saline (subchronic treatments) (1 ml per kg, i.p.). Capsaicin was administered in 10% Tween 80/10% ethanol/80% saline; SR141716A, SR144528, CCK-8 and CP-93129 in 5% Tween 80/5% propylenglycol/90% saline (1 ml per kg, i.p.).

CCCCCCCC/C=C\CCCCCCCC(=O)NCCO [OEA, Z-2-hydroxyethyl octadec-9-enamide]
food intake (hypophagia) ([1]; 24-h food-deprived rats, i.p.): dose- and time-dependent suppression of food intake | water intake ([1]; acute, 5 or 20 mg per kg): did not alter | half-maximally effective dose for hypophagia ([1]; i.p., rats): 5 mg per kg | Stimulatory effect of 10 μM OEA on lypolysis (glycerol release) (Adipocyte): 38 ± 16 (n = 3) % | c-fos mRNA levels in brain regions (c-fos mRNA): highly localized increase | EC50 (human PPARδ): 1.1 ± 0.1 µM | EC50 (human PPARα): 0.12 µM | feeding response in capsaicin-treated rats [2]: failed to respond
